Assay results reported in article PMC10788917 (Journal of Medicinal Chemistry, 2023).

Experiments:
GSH (glutathione) = assay: physchem; conditions: pH 7.4
Method: The AUC (area under the curve) values were determined via integration of HPLC or MS chromatograms and then corrected with the internal standard. The fragments’ AUC values were subjected to ordinary least-squares (OLS) linear regression, and to compute the important parameters (kinetic rate constant and half-life time), an Excel sheet was applied. The data are expressed as means of duplicate determinations. The kinetic rate constant for the degradation and corrected GSH reactivity were calculated as follows. The reaction half-life for pseudo-first-order reactions (t1/2) is ln 2/k, where k is the reaction rate. In the case of competing reactions (reaction with GSH and degradation), the apparent reaction rate is kapp = kdeg + kGSH. When half-lives are measured experimentally, t1/2(app) = ln 2/(kapp) = ln 2/(kdeg + kGSH). In our case, the corrected kdeg and kapp (regarding blank and GSH-containing samples, respectively) can be calculated by linear regression of the measured kinetic data points. The corrected kGSH is calculated as kapp – kdeg, and finally, the half-life is determined using the equation t1/2 = ln 2/k.

HL60 cells = assay: CellTiter-Blue cell viability assay; assay type: cell-based; conditions: Homo sapiens, HL-60; 72 h, Figure 7A
Method: (§1) All cell lines were purchased from DSMZ (Braunschweig, Germany). The cell lines were regularly tested to exclude mycoplasma contamination and authenticated. Cell lines were grown at 37 °C and 5% CO2 in RPMI 1640 medium (Gibco, Thermo Fisher Scientific). Media were supplemented with 10% fetal calf serum (FCS), 10 units/mL penicillin, 10 μg/mL streptomycin, and 2 mM L-glutamine (all Gibco, Thermo Fisher Scientific).
(§2) To determine the IC50 of the selected compounds on the cell lines, the CellTiter-Blue cell viability assay (Promega) was performed. For this, cells were seeded in 96-well flat-bottom plates at a cell density of 10 000 cells/well. Cells were treated in triplicate with the compound of interest at various concentrations or with 10 μM Bortezomib (S1013; Selleck Chemicals, Houston, TX), as a positive control. The cell viability of treated cell lines was measured using CellTiter-Blue after incubation for 72 h. Plates were measured using a GloMax plate reader (Promega), and IC50 values were determined by nonlinear regression using GraphPad Prism version 9.1.1 (GraphPad Software, Inc.), and the data are reported as mean values ± the standard error of the mean.

THP-1 cells = assay: CellTiter-Blue cell viability assay; assay type: cell-based; conditions: Homo sapiens, 72 h, Figure 7A, read-out: cell viability IC50, THP-1
Method: as §1, with “Cell lines were grown at 37 °C and 5% CO2 in RPMI 1640 medium (Gibco, Thermo Fisher Scientific).” left out
as §2, with “The cell viability of treated cell lines was measured using CellTiter-Blue after incubation for 72 h.” left out

SMC3 acetylation = assay: Western blot (immunoblot) in OCI-AML3 cells; assay type: cell-based; conditions: 72 h treatment
Method: Cells (2 ×10^6) were seeded in 2 mL of medium in a six-well plate (Greiner) and treated with the desired concentration of the compounds. […] Protein concentrations were determined by the Bradford protein assay. Thirty micrograms of cell lysates per treatment was fractionated on sodium dodecyl sulfate–polyacrylamide gels and transferred to nitrocellulose membranes (Cytiva).

HDAC8 = biological target: T1, HDAC8 (Homo sapiens, UniProt Q9BY41); assay: Kinetic parameters of inactivation from time-dependent IC50; assay type: biochemical; conditions: HDAC8, inactivation constant
T1 construct: one additional N-terminal residue 'H' (His) (N)
T1 sequence (Q9BY41 1-377): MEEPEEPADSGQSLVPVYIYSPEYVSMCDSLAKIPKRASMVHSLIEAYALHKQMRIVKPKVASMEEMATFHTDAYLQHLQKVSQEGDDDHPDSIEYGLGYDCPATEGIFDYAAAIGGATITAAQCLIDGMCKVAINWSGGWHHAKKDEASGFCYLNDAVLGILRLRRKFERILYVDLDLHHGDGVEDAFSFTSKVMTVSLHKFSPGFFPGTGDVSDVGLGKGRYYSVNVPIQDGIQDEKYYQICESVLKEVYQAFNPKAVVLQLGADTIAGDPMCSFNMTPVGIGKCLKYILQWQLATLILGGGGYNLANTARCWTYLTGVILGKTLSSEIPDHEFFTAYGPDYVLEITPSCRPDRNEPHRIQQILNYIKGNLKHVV
Method: Time-dependent IC50 values were obtained using the previously described enzyme activity assay after varying preincubation times.

HDAC8 WT = HDAC8 WT (Homo sapiens, UniProt Q9BY41); assay: Dilution/dialysis reversibility experiment; assay type: biochemical; conditions: 2000-fold dilution by overnight dialysis
[1] = PBS buffer with 5 mM glutathione (GSH)

| SMILES | half-life at 250 μM (GSH (glutathione); [1]) [h] | further results |
| --- | --- | --- |
| N#Cc1ccccn1 [A4] | – | half-life at 250 μM (GSH (glutathione); buffer): > 48 h |
| Clc1c[nH]cn1 [J1] | > 48 | – |
| Cn1cc[n+](C)c1C#N [H4+] | – | half-life at 250 μM (GSH (glutathione); buffer): > 48 h |
| Brc1ncc[nH]1 [H2] | > 48 | – |
| Ic1ncco1 [N3] | 0.23 | – |
| Ic1cn[nH]c1 [L3] | > 48 | – |
| Ic1ccn[nH]1 [K3] | > 48 | – |
| Brc1nccs1 [R2] | > 48 | – |
| Brc1c[nH]cn1 [J2] | > 48 | – |
| Ic1ncc[nH]1 [H3] | 0.16 | – |
| Clc1cn[nH]c1 [L1] | > 48 | – |
| Brc1cn[nH]c1 [L2] | > 48 | – |
| Brc1cncs1 [Q2] | > 48 | – |
| Ic1c[nH]cn1 [J3] | > 48 | – |
| C#Cc1cnccc1NC(=O)CC(=O)N1Cc2ccccc2C1 [compound 11, N-(3-Ethynylpyridin-4-yl)-3-(isoindolin-2-yl)-3-oxopropanamide] | – | IC50 (HL60 cells): > 500 µM; IC50 (THP-1 cells): > 500 µM |
| Clc1ncc[nH]1 [H1] | > 48 | – |
| Brc1ccn[nH]1 [K2] | > 48 | – |
| C#Cc1ccc[n+](C)c1 [B6+] | – | effect on HDAC8 levels (SMC3 acetylation): not influencing HDAC8 levels; Ki (HDAC8): 0.8 µM; reversibility of covalent binding (HDAC8 WT): irreversible |
